Usually EC50 stands for the concentration that produces a half-maximal response.

Consider 16 compounds from publication PMC4385514 (Chemical biology & drug design, 2014).

Structures are written as SMILES. Counter-ions that a name gives are not always drawn.

The target of assay [1] is T1, TbrPDEB1 (Trypanosoma brucei, UniProt Q8WQX9).
T1 sequence (Q8WQX9 1-930): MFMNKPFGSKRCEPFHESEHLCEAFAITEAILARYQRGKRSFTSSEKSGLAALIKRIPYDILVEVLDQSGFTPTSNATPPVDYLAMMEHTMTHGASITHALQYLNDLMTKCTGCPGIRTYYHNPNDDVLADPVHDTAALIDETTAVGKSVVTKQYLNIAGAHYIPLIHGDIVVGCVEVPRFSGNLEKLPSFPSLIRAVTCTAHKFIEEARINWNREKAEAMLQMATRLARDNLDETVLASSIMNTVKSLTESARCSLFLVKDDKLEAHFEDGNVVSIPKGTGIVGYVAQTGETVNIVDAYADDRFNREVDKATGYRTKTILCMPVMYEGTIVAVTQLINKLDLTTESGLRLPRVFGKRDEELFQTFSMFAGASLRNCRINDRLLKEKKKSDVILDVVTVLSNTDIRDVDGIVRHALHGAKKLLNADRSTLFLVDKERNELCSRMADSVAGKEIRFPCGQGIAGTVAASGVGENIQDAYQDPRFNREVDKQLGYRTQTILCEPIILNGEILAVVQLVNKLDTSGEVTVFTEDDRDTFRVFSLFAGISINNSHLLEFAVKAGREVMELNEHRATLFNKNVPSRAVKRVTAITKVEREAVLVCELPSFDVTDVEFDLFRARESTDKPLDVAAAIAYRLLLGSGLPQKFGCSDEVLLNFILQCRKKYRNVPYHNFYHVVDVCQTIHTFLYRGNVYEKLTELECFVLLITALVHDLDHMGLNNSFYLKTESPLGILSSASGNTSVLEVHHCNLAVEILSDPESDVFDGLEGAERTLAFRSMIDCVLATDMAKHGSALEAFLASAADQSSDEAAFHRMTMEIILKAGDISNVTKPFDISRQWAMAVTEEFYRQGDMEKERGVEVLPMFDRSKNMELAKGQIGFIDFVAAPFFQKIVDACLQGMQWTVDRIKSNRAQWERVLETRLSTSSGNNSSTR
Description: TbrPDEB1 biochemical assay. As to conditions: for inhibition at 10 µM: read-out: TbrPDEB1 (% inh); for fold improvement of TbrPDEB1 activity over 3: relative to compound 3.

Assay [2] has as its system Bloodstream forms of Trypanosoma brucei brucei strain 427. Description: Trypanosome cell culture assay. The settings on record: 48 h, read-out: T brucei cell (EC50, μM). The assay is classed as cell-based.

As for `COC(=O)c1cccc(S(=O)(=O)c2cc(C)c3ncc(C(N)=O)c(Nc4cccc(OC)c4)c3c2)c1` [Compound 10a, methyl 3-(3-carbamoyl-4-(3-methoxyphenylamino)-8-methylquinolin-6-ylsulfonyl)benzoate], in assay [1], the inhibition at 10 µM is 70 ± 7.9% and the “fold improvement of TbrPDEB1 activity over 3” value is listed as “approximately 8 fold”. Further, the EC50 in assay [2] is 7.3 ± 0.97 µM.

For `CNC(=O)c1cnc2c(C)cc(-c3ccc4cnn(C)c4c3)cc2c1Nc1cccc(OC)c1` [Compound 27a, 4-((3-methoxyphenyl)amino)-N,8-dimethyl-6-(1-methyl-1H-indazol-6-yl)quinoline-3-carboxamide], in assay [1], the inhibition at 10 µM was 34 ± 11%.

Turning to `CNC(=O)c1cccc(S(=O)(=O)c2cc(C)c3ncc(C(N)=O)c(Nc4cccc(OC)c4)c3c2)c1` [Compound 12b, 4-(3-methoxyphenylamino)-8-methyl-6-(3-(methylcarbamoyl)phenylsulfonyl)quinoline-3-carboxamide], the inhibition at 10 µM in assay [1] was 66 ± 6.1%.

As to `COc1cccc(Nc2c(C(N)=O)cnc3c(C)cc(S(=O)(=O)c4ccccc4)cc23)c1` [Compound 10b, 4-((3-methoxyphenyl)amino)-8-methyl-6-(phenylsulfonyl)quinoline-3-carboxamide], the inhibition at 10 µM in assay [1] was 21 ± 16%.

In the case of `COC(=O)c1cccc(Nc2cc(C)c3ncc(C(N)=O)c(Nc4cccc(OC)c4)c3c2)c1` [Compound 13, methyl 3-(3-carbamoyl-4-(3-methoxyphenylamino)-8-methylquinolin-6-ylamino)benzoate], the inhibition at 10 µM in assay [1] came to 84 ± 7.7%.

As to `COC(=O)c1cc(C(=O)O)cc(-c2cc(C)c3ncc(C(N)=O)c(Nc4cccc(OC)c4)c3c2)c1` [Compound 18b, 3-(3-carbamoyl-4-((3-methoxyphenyl)amino)-8-methylquinolin-6-yl)-5-(methoxycarbonyl)benzoic acid], in assay [1], the inhibition at 10 µM worked out at 31 ± 14%.

Take `COc1cccc(Nc2c(C(N)=O)cnc3c(C)cc(Sc4ccccc4)cc23)c1` [Compound 9b, 4-((3-methoxyphenyl)amino)-8-methyl-6-(phenylthio)quinoline-3-carboxamide]: the inhibition at 10 µM in assay [1] amounted to 10%.

Consider `COC(=O)c1cccc(-c2cc(C)c3ncc(C(N)=O)c(-c4cccc(C(=O)OC)c4)c3c2)c1` [Compound 21a, dimethyl 3,3′-(3-carbamoyl-8-methylquinoline-4,6-diyl)dibenzoate], for which the inhibition at 10 µM in assay [1] was 41 ± 5.8%.

Regarding `Cc1cc(-c2cccc(-c3ncco3)c2)cc2c(NC3CCCC3)c(C(N)=O)cnc12` [Compound 28, 4-(cyclopentylamino)-8-methyl-6-(3-(oxazol-2-yl)phenyl)quinoline-3-carboxamide], the inhibition at 10 µM in assay [1] was 76 ± 2.2%.

As to `COC(=O)c1cccc(-c2cc(C)c3ncc(C(N)=O)cc3c2)c1` [Compound 21b, methyl 3-(3-carbamoyl-8-methylquinolin-6-yl)benzoate], in assay [1], the inhibition at 10 µM came to 0%.

Regarding `COC(=O)c1cccc(Sc2cc(C)c3ncc(C(N)=O)c(Nc4cccc(OC)c4)c3c2)c1` [Compound 9a, methyl 3-(3-carbamoyl-4-(3-methoxyphenylamino)-8-methylquinolin-6-ylthio)benzoate], the inhibition at 10 µM in assay [1] worked out at 12 ± 6.1%.

For `COc1cccc(Nc2c(C(N)=O)cnc3c(C)cc(S(=O)(=O)c4cccc(C(=O)N(C)C)c4)cc23)c1` [Compound 3, GSK-256066, reference compound], the inhibition at 10 µM in assay [1] came out at 51 ± 3.9%. Moreover, in assay [2], the EC50 came to 7.8 ± 2.5 µM.

Turning to `COc1cccc(Nc2c(C(N)=O)cnc3c(C)cc(S(=O)(=O)c4cccc(C(=O)O)c4)cc23)c1` [Compound 11, 3-(3-carbamoyl-4-(3-methoxyphenylamino)-8-methylquinolin-6-ylsulfonyl)benzoic acid], in assay [1], the inhibition at 10 µM came out at 82 ± 10% and the “fold improvement of TbrPDEB1 activity over 3” value is “approximately 8 fold”.

Consider `COc1cccc(Nc2c(C(N)=O)cnc3c(C)cc(S(=O)(=O)c4cccc(C(N)=O)c4)cc23)c1` [Compound 12a, 6-(3-carbamoylphenylsulfonyl)-4-(3-methoxyphenylamino)-8-methylquinoline-3-carboxamide], for which, in assay [1], the inhibition at 10 µM was found to be 64 ± 7%.

`COc1cccc(Nc2c(C(=O)N(C)C)cnc3c(C)cc(-c4ccc5cnn(C)c5c4)cc23)c1` [Compound 27b, 4-((3-methoxyphenyl)amino)-N,N,8-trimethyl-6-(1-methyl-1H-indazol-6-yl)quinoline-3-carboxamide, formic acid salt]: the inhibition at 10 µM in assay [1] is 22 ± 3.8%.

Turning to `COc1cccc(Nc2c(C(N)=O)cnc3c(C)cc(-c4cc(C(=O)O)cc(C(=O)O)c4)cc23)c1` [Compound 18a, 5-(3-carbamoyl-4-((3-methoxyphenyl)amino)-8-methylquinolin-6-yl)isophthalic acid], in assay [1], the inhibition at 10 µM was found to be 10 ± 5.3%.
